According to patent US20240025862A1, “SUBSTITUTED N-PHENYLURACILS AND SALTS THEREOF, AND USE THEREOF AS HERBICIDAL ACTIVE SUBSTANCES” (Bayer Aktiengesellschaft, priority 2020, published 2024):

Tests used:
Type in all cases: in vivo
[1] = system: Abutilon theophrasti (ABUTH); test: Post-emergence herbicidal action, greenhouse pot test
In short: (§1)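 Greenhouse-grown weeds in sandy loam were sprayed post-emergence at the one-leaf stage, 2–3 weeks after sowing. Compounds were formulated as WP or EC in water with 0.5% additive at 600 l/ha, at rates of 20 g/ha or less. Visual rating after about 3 weeks used a scale from 0% (like untreated control) to 100% (plants dead).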

[2] = system: Amaranthus retroflexus (AMARE); test: as above
In short: as §1

Avena fatua (AVEFA) = test: as above
In short: as §1

Hordeum murinum (HORMU) = test: as above; conditions: rated visually after about 3 weeks vs untreated controls, 100% = plants have died
In short: as §1

[3] = system: Pharbitis purpurea (PHBPU); test: as above
In short: as §1

[4] = system: Polygonum convolvulus (POLCO); test: as above
In short: as §1

Stellaria media (STEME) = test: as above
In short: as §1

Veronica persica (VERPE) = test: as above
In short: as §1

Viola tricolor (VIOTR) = test: as above
In short: as §1

[5] = system: Alopecurus myosuroides (ALOMY); test: Post-emergence herbicidal action, greenhouse pot test (also comparative test C)
In short: (§2)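 Green parts of one-leaf-stage plants are sprayed at 600 l/ha with formulated compound plus 0.5% additive, then kept under optimum greenhouse conditions for about 3 weeks. Damage is scored visually, where 100% means dead plants and 0% means no difference from controls.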

[6] = system: Echinochloa crus-galli (ECHCG); test: as above
In short: as §2

[7] = system: Matricaria inodora (MATIN); test: as above
In short: as §2

Setaria viridis (SETVI) = test: as above
In short: as §2

Glycine max (GLXMA) = test: Post-emergence crop plant compatibility, greenhouse pot test
In short: (§3)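 Percent crop injury was judged by eye roughly three weeks after treatment, relative to untreated plants, where 100% meant death. Application was a post-emergence spray at the one-leaf stage, 600 l/ha water volume with 0.5% additive; letters a, b, c denote differing dose rates.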

[8] = system: Triticum aestivum (TRZAS); test: as above; conditions: vs untreated controls
In short: as §3

Zea mays (ZEAMX) = test: as above; conditions: 1.25 g/ha, vs untreated controls
In short: as §3

Oryza sativa (ORYSA) = test: Post-emergence crop plant compatibility, greenhouse pot test (also comparative test C); conditions: vs untreated controls
In short: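 Rice and other crops sprayed post-emergence at one-leaf stage (2–3 weeks after sowing) with WP or EC formulations plus 0.5% additive at 600 l/ha water. Visual rating about 3 weeks later versus untreated controls (100% = dead, 0% = like control); suffixes a–c denote different doses.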

Brassica napus (BRSNW) = test: Post-emergence crop plant compatibility, greenhouse pot test; conditions: 1.25 g/ha, vs untreated controls
In short: as §3

[9] = Ipomoea purpurea, 504 h, read-out: Post-emergence action against PHBPU in %
[10] = Fallopia convolvulus, 504 h, read-out: Post-emergence action against POLCO in %
[11] = Veronica persica, 504 h, read-out: Post-emergence action against VERPE
[12] = Viola tricolor, 504 h, read-out: Post-emergence action against VIOTR
[13] = Tripleurospermum inodorum, 504 h, read-out: Post-emergence action against MATIN in %
[14] = Setaria viridis, 504 h, read-out: Post-emergence action against SETVI in %
[15] = 1.25 g/ha, rated visually after about 3 weeks vs untreated controls, 100% = plants have died
[16] = 5 g/ha, rated visually after about 3 weeks vs untreated controls, 100% = plants have died
[17] = 20 g/ha, rated visually after about 3 weeks vs untreated controls, 100% = plants have died

COCCOC(=O)COc1ccccc1Sc1cc(-n2c(=O)cc(C(F)(F)F)n(C)c2=O)c(F)cc1Cl [I.1-1, 2-Methoxyethyl [2-({2-chloro-4-fluoro-5-[3-methyl-2,6-dioxo-4-(trifluoromethyl)-3,6-dihydropyrimidin-1(2H)-yl]phenyl}sulfanyl)phenoxy]acetate] showed a pest or weed control at 1.25 g/ha ([1]; Abutilon theophrasti, 504 h, read-out: Post-emergence action at 1.25 g/ha against ABUTH in %) of 100%, a pest or weed control at 5 g/ha ([1]; Abutilon theophrasti, 504 h, read-out: Post-emergence action at 5 g/ha against ABUTH in %) of 100% and a pest or weed control at 20 g/ha ([1]; Abutilon theophrasti, 504 h, read-out: Post-emergence action at 20 g/ha against ABUTH in %) of 100%. The pest or weed control at 1.25 g/ha ([2]; Amaranthus retroflexus, 504 h, read-out: Post-emergence action at 1.25 g/ha against AMARE in %) was 90%, the pest or weed control at 5 g/ha ([2]; Amaranthus retroflexus, 504 h, read-out: Post-emergence action at 5 g/ha against AMARE in %) was 100% and the pest or weed control at 20 g/ha ([2]; Amaranthus retroflexus, 504 h, read-out: Post-emergence action at 20 g/ha against AMARE in %) was 100%. For the same compound, the pest or weed control at 20 g/ha (Avena fatua (AVEFA); Avena fatua, 504 h, read-out: Post-emergence action at 20 g/ha against AVEFA in %) was 80%, the “Post-emergence action at 20 g/ha against HORMU in %” value (Hordeum murinum (HORMU)) was 100% and the pest or weed control at 1.25 g/ha [3, 9] was 100%. The pest or weed control at 5 g/ha [3, 9] was 100%, the pest or weed control at 20 g/ha [3, 9] was 100% and the pest or weed control at 5 g/ha [4, 10] was 100%. For the same compound, the pest or weed control at 20 g/ha [4, 10] was 100%, the “Post-emergence action against STEME” value (Stellaria media (STEME); 1.25 g/ha) was 80% and the “Post-emergence action against STEME” value (Stellaria media (STEME); 5 g/ha) was 100%. For the same compound, the “Post-emergence action against STEME” value (Stellaria media (STEME); 20 g/ha) was 100%, the pest or weed control at 1.25 g/ha (Veronica persica (VERPE); [11]) was 80% and the pest or weed control at 5 g/ha (Veronica persica (VERPE); [11]) was 100%. It also gave a pest or weed control at 20 g/ha (Veronica persica (VERPE); [11]) of 100%, a pest or weed control at 1.25 g/ha (Viola tricolor (VIOTR); [12]) of 100% and a pest or weed control at 5 g/ha (Viola tricolor (VIOTR); [12]) of 100%. The pest or weed control at 20 g/ha (Viola tricolor (VIOTR); [12]) was 100%, the pest or weed control at 20 g/ha ([5]; Alopecurus myosuroides, 504 h, read-out: Post-emergence action at 20 g/ha against ALOMY in %) was 80% and the pest or weed control at 20 g/ha ([6]; Echinochloa crus-galli, 504 h, read-out: Post-emergence action against ECHCG in %) was 80%. It also gave a pest or weed control at 5 g/ha [7, 13] of 100%, a pest or weed control at 20 g/ha [7, 13] of 100% and a pest or weed control at 20 g/ha (Setaria viridis (SETVI); Setaria viridis, 504 h, read-out: Post-emergence action against SETVI) of 100%. The pest or weed control at 1.25 g/ha (Setaria viridis (SETVI); [14]) was 100%, the pest or weed control at 5 g/ha (Setaria viridis (SETVI); [14]) was 100% and the “Post-emergence action against GLXMA in %” value (Glycine max (GLXMA); 1.25 g/ha) was 0%. For the same compound, the “Post-emergence action against GLXMA in %” value (Glycine max (GLXMA); 5 g/ha) was 20%, the “Post-emergence action against TRZAS (crop plant compatibility)” value (from here on “Post-emergence action against TRZAS”) ([8]; 1.25 g/ha) was 20% and the “Post-emergence action against ZEAMX (crop plant compatibility)” value (Zea mays (ZEAMX)) was 20%. The “Post-emergence action against ORYSA (crop plant compatibility)” value (Oryza sativa (ORYSA); 1.25 g/ha) was 10% and the “Post-emergence action against ORYSA (crop plant compatibility)” value (Oryza sativa (ORYSA); 5 g/ha) was 10%.

For Cn1c(C(F)(F)F)cc(=O)n(-c2cc(Sc3ccccc3OCC(=O)OCC3CCCO3)c(Cl)cc2F)c1=O (racemic) [I.1-71], the “Post-emergence action at 1.25 g/ha against ABUTH in %” value [1, 15] was 100%, the “Post-emergence action at 5 g/ha against ABUTH in %” value [1, 16] was 100% and the “Post-emergence action at 20 g/ha against ABUTH in %” value [1, 17] was 100%. For the same compound, the “Post-emergence action at 1.25 g/ha against AMARE in %” value [2, 15] was 100%, the “Post-emergence action at 5 g/ha against AMARE in %” value [2, 16] was 100% and the “Post-emergence action at 20 g/ha against AMARE in %” value [2, 17] was 100%. The “Post-emergence action at 20 g/ha against AVEFA in %” value (Avena fatua (AVEFA); [17]) was 80%, the “Post-emergence action at 5 g/ha against HORMU in %” value (Hordeum murinum (HORMU); 5 g/ha) was 80% and the “Post-emergence action at 20 g/ha against HORMU in %” value (Hordeum murinum (HORMU)) was 90%. The “Post-emergence action against PHBPU in %” value ([3]; dosage 1.25 g/ha) was 100%, the “Post-emergence action against PHBPU in %” value ([3]; dosage 5 g/ha) was 100% and the “Post-emergence action against PHBPU in %” value ([3]; dosage 20 g/ha) was 100%. For the same compound, the “Post-emergence action against POLCO in %” value ([4]; dosage 1.25 g/ha) was 100%, the “Post-emergence action against POLCO in %” value ([4]; dosage 5 g/ha) was 100% and the “Post-emergence action against POLCO in %” value ([4]; dosage 20 g/ha) was 100%. The “Post-emergence action against STEME” value (Stellaria media (STEME); 1.25 g/ha) was 90%, the “Post-emergence action against STEME” value (Stellaria media (STEME); 5 g/ha) was 100% and the “Post-emergence action against STEME” value (Stellaria media (STEME); 20 g/ha) was 100%. The “Post-emergence action against VERPE” value (Veronica persica (VERPE); 1.25 g/ha) was 100%, the “Post-emergence action against VERPE” value (Veronica persica (VERPE); 5 g/ha) was 100% and the “Post-emergence action against VERPE” value (Veronica persica (VERPE); 20 g/ha) was 100%. The “Post-emergence action against VIOTR” value (Viola tricolor (VIOTR); 1.25 g/ha) was 100%, the “Post-emergence action against VIOTR” value (Viola tricolor (VIOTR); 5 g/ha) was 100% and the “Post-emergence action against VIOTR” value (Viola tricolor (VIOTR); 20 g/ha) was 100%. For the same compound, the “Post-emergence action at 5 g/ha against ALOMY in %” value [5, 16] was 80%, the “Post-emergence action at 20 g/ha against ALOMY in %” value [5, 17] was 90% and the “Post-emergence action at 1.25 g/ha against ECHCG in %” value [6, 15] was 100%. For the same compound, the “Post-emergence action against ECHCG in %” value ([6]; dosage 20 g/ha) was 100%, the “Post-emergence action against MATIN in %” value ([7]; dosage 1.25 g/ha) was 80% and the “Post-emergence action against MATIN in %” value ([7]; dosage 5 g/ha) was 90%. For the same compound, the “Post-emergence action against MATIN in %” value ([7]; dosage 20 g/ha) was 100%, the “Post-emergence action against SETVI” value (Setaria viridis (SETVI); 20 g/ha) was 100% and the “Post-emergence action against SETVI in %” value (Setaria viridis (SETVI); dosage 1.25 g/ha) was 100%. For the same compound, the “Post-emergence action against SETVI in %” value (Setaria viridis (SETVI); dosage 5 g/ha) was 100%, the “Post-emergence action against BRSNW (crop plant compatibility)” value (Brassica napus (BRSNW)) was 20% and the “Post-emergence action against TRZAS” value ([8]; 1.25 g/ha) was 10%. The “Post-emergence action against TRZAS” value ([8]; 5 g/ha) was 20% and the “Post-emergence action against ZEAMX (crop plant compatibility)” value (Zea mays (ZEAMX)) was 20%.
